Measurements reported in patent US8513224B2, “Crystalline form C of tigecycline dihydrochloride and methods for its preparation” (Sandoz AG, priority 2008, dated 2013).
Counter-ions that a name gives are not always drawn.

What was measured:
Type in all cases: physicochemical
physchem = assay: physchem
Procedure: The finished dosage form contains lyophilized amorphous Tigecycline respectively Tigecycline hydrochloride. Before lyophilizing, Tigecycline respectively acid addition salts of Tigecycline are dissolved in water, thus water solubility is an important factor to consider.
A UV-vis Lambda 35 spectrophotometer (Perkin-Elmer) was used (λ=347 nm, 1.0 cm quartz cells). Perkin Elmer® UV Win Lab-5.1 software was used.
A saturated solution of Tigecycline, Tigecycline hydrochloride or Tigecycline dihydrochloride in distilled water was prepared and the suspension was stirred at room temperature for 30 minutes with a stirring speed of 1000 U/min. The suspension was filtered through a 0.45 μm filter. Finally the resulting solution was diluted 10000-fold and measured against water at a wavelength of 347 nm.

[1] = Physical stability at elevated temperatures (impurities by HPLC); conditions: for 4-Epi-Tigecycline 7 days at 80° C. / Total impurities 7 days at 80° C. / Stability in words (impurities after storage): stored 7 days at 80° C.; for 4-Epi-Tigecycline 7 days at 80° C. / Total impurities 7 days at 80° C.: in % (unit assumed)
From the text: Tigecycline must be available in a physically stable form as well, in order to avoid degradation and as a consequence the building of undesired byproducts. Table 4 compares the stability data of the different crystalline forms of Tigecycline free base and Tigecycline hydrochloride with these of crystalline form C of Tigecycline dihydrochloride from the present invention.
Therefore crystalline form C of Tigecycline dihydrochloride in essentially pure polymorphic form is more preferred than amorphous Tigecycline dihydrochloride.

[2] = Water content on storage at defined relative humidity; conditions: stored at about 0% relative humidity
From the text: Form C of Tigecycline dihydrochloride is an anhydrous form, containing no water when stored at about 0% relative humidity and containing not more than about 0.8% to 1.7% e.g. when stored at about 50% relative humidity.

[3] = Thermodynamical stability (crystal structure after storage); conditions: stored 7 days at 80° C.

Row | SMILES | 4-Epi-Tigecycline at ambient conditions [1] | Total impurities at ambient conditions [1] | 4-Epi-Tigecycline 7 days at 80° C. [1] | Total impurities 7 days at 80° C. [1] | other results
1 | CN(C)c1cc(NC(=O)CNC(C)(C)C)c(O)c2c1C[C@H]1C[C@H]3[C@H](N(C)C)C(O)=C(C(N)=O)C(=O)[C@@]3(O)C(O)=C1C2=O [A (xHCl), Tigecycline hydrochloride] |  |  |  |  | Water solubility, Concentration (physchem; 30 min): 503 mg/mL; solubility at 30 min (physchem; water, thermodynamic from solid, Water solubility, Concentration): 503 mg/mL; 4-Epi-Tigecycline at ambient conditions ([1]; hydrochloride): 0.84%; Total impurities at ambient conditions ([1]; hydrochloride): 1.07%; 4-Epi-Tigecycline 7 days at 80° C. ([1]; hydrochloride): 0.89; Total impurities 7 days at 80° C. ([1]; hydrochloride): 1.81
2 | CN(C)c1cc(NC(=O)CNC(C)(C)C)c(O)c2c1C[C@H]1C[C@H]3[C@H](N(C)C)C(O)=C(C(N)=O)C(=O)[C@@]3(O)C(O)=C1C2=O [amorphous (x2HCl), Tigecycline dihydrochloride] |  |  |  |  | 4-Epi-Tigecycline at ambient conditions ([1]; dihydrochloride): 4.97%; Total impurities at ambient conditions ([1]; dihydrochloride): 5.05%; 4-Epi-Tigecycline 7 days at 80° C. ([1]; dihydrochloride): 16.42; Total impurities 7 days at 80° C. ([1]; dihydrochloride): 18.82
3 | CN(C)c1cc(NC(=O)CNC(C)(C)C)c(O)c2c1C[C@H]1C[C@H]3[C@H](N(C)C)C(O)=C(C(N)=O)C(=O)[C@@]3(O)C(O)=C1C2=O [C (x2HCl), Tigecycline dihydrochloride] | 0.73% | 0.83% | 2.40 | 2.60 | Water content [2]: no water; Water solubility compared with the other crystalline forms (physchem): highest water solubility; Change of crystal structure on storage [3]: did not change its crystal structure
4 | CN(C)c1cc(NC(=O)CNC(C)(C)C)c(O)c2c1C[C@H]1C[C@H]3[C@H](N(C)C)C(O)=C(C(N)=O)C(=O)[C@@]3(O)C(O)=C1C2=O [WO 2006/128150 IV, Tigecycline] | 0.23% | 0.4% | 0.38 | 0.87 | 
5 | CN(C)c1cc(NC(=O)CNC(C)(C)C)c(O)c2c1C[C@H]1C[C@H]3[C@H](N(C)C)C(O)=C(C(N)=O)C(=O)[C@@]3(O)C(O)=C1C2=O [WO 2008/066935 IX, Tigecycline] | 0.15% | 0.43% | 0.70 | 2.13 | 
6 | CN(C)c1cc(NC(=O)CNC(C)(C)C)c(O)c2c1C[C@H]1C[C@H]3[C@H](N(C)C)C(O)=C(C(N)=O)C(=O)[C@@]3(O)C(O)=C1C2=O [B (xHCl), Tigecycline hydrochloride] |  |  |  |  | 4-Epi-Tigecycline at ambient conditions ([1]; hydrochloride): 0.93%; Total impurities at ambient conditions ([1]; hydrochloride): 1.91%; 4-Epi-Tigecycline 7 days at 80° C. ([1]; hydrochloride): 1.60; Total impurities 7 days at 80° C. ([1]; hydrochloride): 4.19
7 | CN(C)c1cc(NC(=O)CNC(C)(C)C)c(O)c2c1C[C@H]1C[C@H]3[C@H](N(C)C)C(=O)C(C(N)=O)=C(O)[C@@]3(O)C(=O)C1=C2O [WO 2008/066935 XII, Tigecycline] | 0.15% | 0.4% | 0.70 | 4.38 | 
8 | CN(C)c1cc(NC(=O)CNC(C)(C)C)c(O)c2c1C[C@H]1C[C@H]3[C@H](N(C)C)C(O)=C(C(N)=O)C(=O)[C@@]3(O)C(O)=C1C2=O [WO 2006/128150 V, Tigecycline] | < 0.05% | 0.22% | 0.18 | 0.37 | 
9 | CN(C)c1cc(NC(=O)CNC(C)(C)C)c(O)c2c1C[C@H]1C[C@H]3[C@H](N(C)C)C(=O)C(C(N)=O)=C(O)[C@@]3(O)C(=O)C1=C2O [WO 2006/128150 III, Tigecycline] | 0.16% | 0.16% | 2.18 | 4.46 | 
10 | CN(C)c1cc(NC(=O)CNC(C)(C)C)c(O)c2c1C[C@H]1C[C@H]3[C@H](N(C)C)C(O)=C(C(N)=O)C(=O)[C@@]3(O)C(O)=C1C2=O [WO 2006/128150 II, Tigecycline] | 1.04% | 1.6% | 10.83 | 18.44 | Stability in words (impurities after storage) [1]: tremendous increase in total impurities
11 | CN(C)c1cc(NC(=O)CNC(C)(C)C)c(O)c2c1C[C@H]1C[C@H]3[C@H](N(C)C)C(O)=C(C(N)=O)C(=O)[C@@]3(O)C(O)=C1C2=O [WO 2007/127292 II, Tigecycline] |  |  |  |  | 4-Epi-Tigecycline at ambient conditions ([1]; listed as WO 2007/127792 II): 0.17%; Total impurities at ambient conditions ([1]; listed as WO 2007/127792 II): 0.24%; 4-Epi-Tigecycline 7 days at 80° C. ([1]; listed as WO 2007/127792 II): 0.38; Total impurities 7 days at 80° C. ([1]; listed as WO 2007/127792 II): 0.91
12 | CN(C)c1cc(NC(=O)CNC(C)(C)C)c(O)c2c1C[C@H]1C[C@H]3[C@H](N(C)C)C(O)=C(C(N)=O)C(=O)[C@@]3(O)C(O)=C1C2=O [WO 2007/127292 I, Tigecycline] |  |  |  |  | 4-Epi-Tigecycline at ambient conditions ([1]; listed as WO 2007/127792 I): 0.34%; Total impurities at ambient conditions ([1]; listed as WO 2007/127792 I): 0.59%; 4-Epi-Tigecycline 7 days at 80° C. ([1]; listed as WO 2007/127792 I): 1.26; Total impurities 7 days at 80° C. ([1]; listed as WO 2007/127792 I): 2.22
13 | CN(C)c1cc(NC(=O)CNC(C)(C)C)c(O)c2c1C[C@H]1C[C@H]3[C@H](N(C)C)C(O)=C(C(N)=O)C(=O)[C@@]3(O)C(O)=C1C2=O [WO 2006/128150 I, Tigecycline] | 0.36% | 0.75% | 2.15 | 11.20 | Stability in words (impurities after storage) [1]: tremendous increase in total impurities
14 | CN(C)c1cc(NC(=O)CNC(C)(C)C)c(O)c2c1C[C@H]1C[C@H]3[C@H](N(C)C)C(O)=C(C(N)=O)C(=O)[C@@]3(O)C(O)=C1C2=O.Cl.Cl [C + 20% amorphous (x2HCl), Tigecycline dihydrochloride] | 1.73% | 1.81% | 4.34 | 4.88 | Stability in words (impurities after storage) [1]: less stable than a pure polymorphic form C
